Where “and” joins values, the source holds several entries; their conditions need not be identical. Identical values can stand only once. Entries after “also recorded” stand apart in the source; their conditions may differ.
Assays:
Format in all cases: in vivo, mice
[1] = tested on: 6 Hz (32 mA) psychomotor seizures; experiment: 6 Hz psychomotor seizure test, 32 mA (incl. TPE determination)
Method: Test compounds were administered using an optimal fluid volume to body fluid ratio. Test compounds were administered to mice in a volume of 0.01 mL/g of body weight (White H. S., et al., General Principles: Experimental selection, quantification, and evaluation of antiepileptic drugs, in Antiepileptic Drugs, Fourth Edition, […], and B. S. Meldrum, Editors. 1995, Raven Press, Ltd.: New York, pp. 99-110). For subcutaneous (s.c.) administration, the test compounds were administered into a loose fold of skin along the back of the animal except compound 6-b, which was administered orally (p.o). […] The animals were maintained on an adequate diet (Prolab RMH 3000) and allowed free access to food and water, except during the short time they were removed from their cage for testing. Animals newly received in the laboratory were allowed sufficient time to correct for possible food and water restriction incurred during transit before being employed in testing. All mice were housed in plastic cages in specially constructed rooms with controlled humidity, exchange of air and controlled lighting (12 hours on-12 hours off). The animals were housed, fed, and handled in a manner consistent with the recommendations in the National Council Publication, “Guide for the Care and Use of Laboratory Animals”. In the determination of an ED50 or TD50 for each test compound, the first dose administered is usually the same dose as that used in a successful TPE determination. […] Third and fourth doses were selected to produce an evenly spaced dose response line. […] TPE was determined using the 6 Hz (32 mA) assay. […] The 6 Hz seizure test is used as a model of pharmacoresistant limbic seizures. […] Focal seizures were induced in mice via corneal stimulation (6 Hz, 0.2 msec rectangular pulse, 3 sec duration; Barton et al. 2001). Mice were tested at either 32 mA or 44 mA. […] The seizures that arise from corneal stimulation in this assay are characterized by a minimal clonic phase followed by stereotyped automatistic behaviors including stun, forelimb clonus, twitching of the vibrissae, and Straub-tail. Animals not displaying these behaviors were considered protected.

[2] = Minimal motor impairment (rotarod)
Method: Acute MMI was assessed by a combination of direct observations of the animal for overt symptoms of the animal's neurological or muscular function. In mice, the rotarod procedure was used to disclose minimal muscular or neurological impairment. When a mouse is placed on a rod that rotates at a speed of 6 rpm, the animal can maintain its equilibrium for long periods of time. The animal was considered toxic if it fell off this rotating rod three times during a 1 min period.
In the determination of an ED50 or TD50 for each test compound, the first dose administered is usually the same dose as that used in a successful TPE determination.
If the initial dose employed was effective or toxic in more than 50% of animals, the next dose would be one-half that of the initial dose; if the initial dose was effective or toxic in less than 50% of animals, the following dose would be twice that of the initial dose. Third and fourth doses were selected to produce an evenly spaced dose response line. There should be a minimum of 4 points either including or lying between 0 and 100%.

[3] = tested on: 6 Hz (44 mA) psychomotor seizures; experiment: 6 Hz psychomotor seizure test, 44 mA (alone, combination with LEV, isobolographic study)
Method: Test compounds were administered using an optimal fluid volume to body fluid ratio. Test compounds were administered to mice in a volume of 0.01 mL/g of body weight (White H. S., et al., General Principles: Experimental selection, quantification, and evaluation of antiepileptic drugs, in Antiepileptic Drugs, Fourth Edition, […], and B. S. Meldrum, Editors. 1995, Raven Press, Ltd.: New York, pp. 99-110). For subcutaneous (s.c.) administration, the test compounds were administered into a loose fold of skin along the back of the animal except compound 6-b, which was administered orally (p.o). […] The animals were maintained on an adequate diet (Prolab RMH 3000) and allowed free access to food and water, except during the short time they were removed from their cage for testing. Animals newly received in the laboratory were allowed sufficient time to correct for possible food and water restriction incurred during transit before being employed in testing. All mice were housed in plastic cages in specially constructed rooms with controlled humidity, exchange of air and controlled lighting (12 hours on-12 hours off). The animals were housed, fed, and handled in a manner consistent with the recommendations in the National Council Publication, “Guide for the Care and Use of Laboratory Animals”. In the determination of an ED50 or TD50 for each test compound, the first dose administered is usually the same dose as that used in a successful TPE determination. […] Third and fourth doses were selected to produce an evenly spaced dose response line. […] The 6 Hz seizure test is used as a model of pharmacoresistant limbic seizures. […] Focal seizures were induced in mice via corneal stimulation (6 Hz, 0.2 msec rectangular pulse, 3 sec duration; Barton et al. 2001). Mice were tested at either 32 mA or 44 mA. […] The seizures that arise from corneal stimulation in this assay are characterized by a minimal clonic phase followed by stereotyped automatistic behaviors including stun, forelimb clonus, twitching of the vibrissae, and Straub-tail. Animals not displaying these behaviors were considered protected. […] In addition to recording the efficacy and toxicity data for these compounds alone or in combination, both plasma and brain samples were collected from each of the groups for pharmacokinetic/pharmacokinetic analysis. No pharmacokinetic interaction was observed based on compound levels in the plasma and brain samples (data not shown). Isobolographic studies were conducted for the combined administration of Co. […] Studies were conducted according to previously described methods (Madsen et al. 2011). Initial ED50 values were determined for both Co. […] Co. […] Doses used were proportional to calculated ED50 values. […] Experimental treatment doses (see Table 4) were based on theoretical values and adjusted according to observed effects. Experimentally determined ED50 (+SEM) values for each fixed dose-ratio combination were compared to the theoretical values (t-test) for statistical purposes. […] Subsequently, the experimental combined doses were determined for the same paradigms in the 6 Hz seizure test (Table 4 below).

corneal kindled seizures = experiment: Mouse corneal kindling model; conditions: 100 mg/kg s.c.; Racine score 0-5
Method: After the mice reached a stable kindled state, the test compound or vehicle was administered and, at the previously determined TPE, each animal was given the electrical stimulus indicated above. […] One dose of LEV and two doses of Co.

[4] = 20 mg/kg s.c., 0.5 h, 32 mA group
[5] = 40 mg/kg s.c., 0.5 h, 32 mA group

For `Cc1cc(-c2nc(CN3CCNCC3)no2)cc2c1C(=O)N(Cc1ccc(OC(F)(F)F)cc1)C2` [CAS 1092453-15-0, 2,3-dihydro-7-methyl-5-[3-(1-piperazinylmethyl)-1,2,4-oxadiazol-5-yl]-2-[[4-(trifluoromethoxy)phenyl]methyl]-1H-isoindol-1-one, reference compound], the “# protected/# tested” value ([1]; 20 mg/kg s.c., 0.25 h) was 1/4, the “# protected/# tested” value ([1]; 20 mg/kg s.c., 0.5 h) was 0/4 and the “# protected/# tested” value ([1]; 20 mg/kg s.c., 1 h) was 1/4. The “# protected/# tested” value ([1]; 20 mg/kg s.c., 2 h) was 0/4, the “# protected/# tested” value ([1]; 20 mg/kg s.c., 4 h) was 0/4 and the “# protected/# tested” value ([1]; 40 mg/kg s.c., 0.25 h) was 1/4. For the same compound, the “# protected/# tested” value ([1]; 40 mg/kg s.c., 0.5 h) was 1/4, the “# protected/# tested” value ([1]; 40 mg/kg s.c., 1 h) was 1/4 and the “# protected/# tested” value ([1]; 40 mg/kg s.c., 2 h) was 0/4. The “# protected/# tested” value ([1]; 40 mg/kg s.c., 4 h) was 0/4, the “# protected/# tested” value ([1]; 80 mg/kg s.c., 0.25 h) was 0/4 and the “# protected/# tested” value ([1]; 80 mg/kg s.c., 0.5 h) was 0/4. The “# protected/# tested” value ([1]; 80 mg/kg s.c., 1 h) was 1/4, the “activity in the 6 Hz 32 mA test” value ([1]; result in words) was “Low activity; also recorded: did not show activity” and the “# rotarod motor impairment/# tested” value ([2]; 20 mg/kg s.c., 0.25 h, 32 mA group) was 0/4. For the same compound, the “# rotarod motor impairment/# tested” value [2, 4] was 0/4, the “# rotarod motor impairment/# tested” value ([2]; 20 mg/kg s.c., 1 h, 32 mA group) was 0/4 and the “# rotarod motor impairment/# tested” value ([2]; 20 mg/kg s.c., 2 h, 32 mA group) was 0/4. For the same compound, the “# rotarod motor impairment/# tested” value ([2]; 20 mg/kg s.c., 4 h, 32 mA group) was 0/4, the “# rotarod motor impairment/# tested” value ([2]; 40 mg/kg s.c., 0.25 h, 32 mA group) was 0/4 and the “# rotarod motor impairment/# tested” value [2, 5] was 0/4. For the same compound, the “# rotarod motor impairment/# tested” value ([2]; 40 mg/kg s.c., 1 h, 32 mA group) was 0/4, the “# rotarod motor impairment/# tested” value ([2]; 40 mg/kg s.c., 2 h, 32 mA group) was 0/4 and the “# rotarod motor impairment/# tested” value ([2]; 40 mg/kg s.c., 4 h, 32 mA group) was 0/4. The “# rotarod motor impairment/# tested” value ([2]; 80 mg/kg s.c., 0.25 h, 32 mA group) was 0/4, the “# rotarod motor impairment/# tested” value ([2]; 80 mg/kg s.c., 0.5 h, 32 mA group) was 0/4 and the “# rotarod motor impairment/# tested” value ([2]; 80 mg/kg s.c., 1 h, 32 mA group) was 1/4. The “activity in the 6 Hz 44 mA test” value ([3]; result in words) was “did not show activity” and the “pharmacodynamic interaction with LEV in the 6 Hz model” value ([3]; result in words) was “did not display synergy”.

With `CCCCn1ccc(N2CCC(c3ccccc3)CC2)c(Cl)c1=O` [Co. No. 2-a] the “# protected/# tested” value ([1]; 2.5 mg/kg s.c., 0.5 h) was 0/8, the “# protected/# tested” value ([1]; 5 mg/kg s.c., 0.5 h) was 0/8 and the “# protected/# tested” value ([1]; 10 mg/kg s.c., 0.5 h) was 4/8. The “# protected/# tested” value ([1]; 20 mg/kg s.c., 0.5 h) was 6/8, the “# protected/# tested” value ([1]; 40 mg/kg s.c., 0.5 h) was 8/8 and the “ED50 (95% CI) 32 mA” value ([1]; s.c., at TPE) was “ED50 (95% CI): 12.2 mg/kg (8.4 to 17.4)”. For the same compound, the “Seizure score (dose) Corneal kindling” value (corneal kindled seizures) was 4.4, the “# rotarod motor impairment/# tested” value ([2]; 2.5 mg/kg s.c., 0.5 h, 32 mA group) was 1/8 and the “# rotarod motor impairment/# tested” value ([2]; 5 mg/kg s.c., 0.5 h, 32 mA group) was 0/8. For the same compound, the “# rotarod motor impairment/# tested” value ([2]; 10 mg/kg s.c., 0.5 h, 32 mA group) was 0/8, the “# rotarod motor impairment/# tested” value ([2]; 10 mg/kg s.c., 0.5 h, 44 mA group) was 1/8 and 0/8 and the “# rotarod motor impairment/# tested” value ([2]; 15 mg/kg s.c., 0.5 h, 44 mA group) was 1/8. The “# rotarod motor impairment/# tested” value [2, 4] was 3/8, the “# rotarod motor impairment/# tested” value ([2]; 20 mg/kg s.c., 0.5 h, 44 mA group) was 0/8 and the “# rotarod motor impairment/# tested” value [2, 5] was 2/8. The “# rotarod motor impairment/# tested” value ([2]; 40 mg/kg s.c., 0.5 h, 44 mA group) was 4/8, the TD50 at 0.5 h ([2]; mouse, in vivo, sc, rotarod) was over 40 mg/kg and the “activity when administered alone” value ([3]; 10 mg/kg s.c.) was “^aCo. No. 2-a (s.c.) 10 mg/kg tested in combination with LEV (i.p.); Co. No. 2-a 10 mg/kg, not active when administered alone; also recorded: ^bCo. No. 2-a (s.c.) 10 mg/kg tested in combination with LEV (i.p.); Co. No. 2-a 10 mg/kg, not active when administered alone”. The “% protection 44 mA” value ([3]; 100 mg/kg s.c.) was 50% protection at, the responders at 10 mg/kg ([3]; Mus musculus, sc, 0.5 h, 10 mg/kg s.c., 0.5 h, read-out: # protected/# tested (converted)) was 0% and the responders at 15 mg/kg ([3]; Mus musculus, sc, 0.5 h, 15 mg/kg s.c., 0.5 h, read-out: # protected/# tested (converted)) was 25%. The responders at 20 mg/kg ([3]; Mus musculus, sc, 0.5 h, 20 mg/kg s.c., 0.5 h, read-out: # protected/# tested (converted)) was 37.5%, the responders at 40 mg/kg ([3]; Mus musculus, sc, 0.5 h, 40 mg/kg s.c., 0.5 h, read-out: # protected/# tested (converted)) was 100% and the ED50 ([3]; Mus musculus, sc, at TPE, compound alone, read-out: ED50 (95% CI) 44 mA) was 21 mg/kg.
